Measured values: patent publication US12122816B2, “Long acting peptide tyrosine tyrosine (PYY) analogs and methods of use” (Intarcia Therapeutics, Inc., priority 2020, dated 2024)
pEC50: −log10 of the molar value.

Tests used:
human Y1 receptor = biological target: T1, human Y1 receptor (Homo sapiens, UniProt P25929); test: NPY receptor functional assay (cAMP, HEK-CNG cells, ACTOne membrane potential dye); assay type: cell-based
T1 sequence (P25929 1-384): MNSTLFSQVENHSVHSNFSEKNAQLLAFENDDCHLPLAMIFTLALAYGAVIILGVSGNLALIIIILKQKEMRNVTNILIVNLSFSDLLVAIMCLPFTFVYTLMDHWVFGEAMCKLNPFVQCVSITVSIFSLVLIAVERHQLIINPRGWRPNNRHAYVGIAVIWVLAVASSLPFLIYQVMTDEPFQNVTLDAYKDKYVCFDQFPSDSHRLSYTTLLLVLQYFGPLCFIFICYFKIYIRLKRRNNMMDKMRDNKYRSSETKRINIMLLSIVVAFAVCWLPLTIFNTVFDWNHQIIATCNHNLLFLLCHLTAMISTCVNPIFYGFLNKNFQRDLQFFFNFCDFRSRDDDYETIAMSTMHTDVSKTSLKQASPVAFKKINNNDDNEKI
Description: The NPY family of G-protein coupled receptors include Y1, Y2, Y4, and Y5 in humans and rats. […] Following agonist binding, the receptor-G protein complex activates a downstream intracellular signaling cascade which leads to inhibition of adenylate cyclase and a reduction in intracellular cAMP levels.
HEK-CNG cells stably expressing the human or rat Y1, Y2, Y4 or Y5 receptors (Codex Biosolutions) were used to characterize the functional potency of peptide agonists using the ActOne™ membrane potential dye kit (Codex Biosolutions). In addition to each NPY receptor, each cell line encodes a proprietary exogenous Cyclic Nucleotide-Gated (CNG) channel (Codex Biosolutions). The channel is activated by elevated intracellular levels of cAMP, resulting in ion flux and cell membrane depolarization which can be detected with a calcium sensitive dye or fluorescent membrane potential (MP) dye. Cells were carried in growth media containing 90% DMEM, 10% FBS, 250 mcg/mL G418 and 1 mcg/mL puromycin for no more than 15 passages.
Prior to testing, cells were counted and dispensed at 14,000 cells per well (Y1, Y4 and Y5) or 28,000 cells per well (Y2) into black 384 well Poly-D-Lysine plates at 20 mcL per well. Covered plates were then incubated at room temperature for 30 minutes followed by an overnight incubation at 37° C. in 5% C02. The following day, media was removed and wells were washed once with 40 mcL Dulbecco's phosphate buffered saline. […] Ten microliters of experimental peptide or peptide standard was added in triplicate to wells and incubated for 50 minutes at room temperature in the dark. Following this incubation step, plates were read again as before (final read).
NPY receptor activation, leading to a reduction in intracellular cAMP levels, is detected as a decrease in isoproteranol induced fluorescent signal. Peptide standard and experimental values were initially transformed in excel using the formula: final read/initial read. […] Normalized data was analyzed from triplicate tests and used to estimate the EC50 for each test peptide on each receptor. Data was fit in GraphPad Prism software (v8.2.1) using a 3-parameter logistic curve model: Y=Bottom+(Top−Bottom)/(1+10^((LogEC50−X))). EC50 values were converted to pEC50 values using the formula: pEC50=−Log(EC50).

human Y2 receptor = biological target: T2, human Y2 receptor (Homo sapiens, UniProt P49146); test: as above; assay type: cell-based; settings: NPY2R pEC50, HEK-CNG cells; standard PYY(3-36); species (human or rat) not given
T2 sequence (P49146 1-381): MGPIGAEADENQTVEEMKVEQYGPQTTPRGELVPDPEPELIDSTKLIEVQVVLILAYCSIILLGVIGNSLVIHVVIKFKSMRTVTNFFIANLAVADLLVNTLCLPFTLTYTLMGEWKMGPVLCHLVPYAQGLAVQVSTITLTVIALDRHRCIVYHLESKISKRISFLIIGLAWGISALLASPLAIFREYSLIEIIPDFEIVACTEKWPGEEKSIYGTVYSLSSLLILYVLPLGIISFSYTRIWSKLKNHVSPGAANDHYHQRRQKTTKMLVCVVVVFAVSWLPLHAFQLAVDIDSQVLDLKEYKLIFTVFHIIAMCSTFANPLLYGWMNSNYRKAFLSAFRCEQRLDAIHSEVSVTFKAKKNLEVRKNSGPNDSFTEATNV
In short: (§1)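 HEK-CNG cells stably expressing each human receptor; peptides added in triplicate for 50 minutes at room temperature, with agonism read as decreased isoproterenol-induced membrane potential dye signal (final/initial read).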

human Y5 receptor = biological target: T3, human Y5 receptor (Homo sapiens, UniProt Q15761); test: as above; assay type: cell-based; settings: NPY5R pEC50, HEK-CNG cells; standard NPY; species (human or rat) not given
T3 sequence (Q15761 1-445): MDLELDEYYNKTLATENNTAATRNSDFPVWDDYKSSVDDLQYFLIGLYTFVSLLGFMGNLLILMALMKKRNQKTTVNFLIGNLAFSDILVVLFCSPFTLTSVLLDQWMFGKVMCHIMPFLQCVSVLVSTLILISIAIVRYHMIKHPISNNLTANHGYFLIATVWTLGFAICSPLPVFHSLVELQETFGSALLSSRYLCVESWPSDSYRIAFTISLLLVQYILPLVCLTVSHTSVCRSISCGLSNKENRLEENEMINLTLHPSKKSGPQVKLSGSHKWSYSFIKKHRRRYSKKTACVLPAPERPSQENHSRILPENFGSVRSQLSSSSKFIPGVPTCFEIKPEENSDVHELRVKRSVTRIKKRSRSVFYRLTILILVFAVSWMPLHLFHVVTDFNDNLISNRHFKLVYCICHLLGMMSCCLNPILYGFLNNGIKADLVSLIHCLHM
In short: as §1

[1] = Stability in water or saline (1 mg/ml) at 37° C., purity by LC/MS and HPLC; assay type: physicochemical; settings: TFA salt form

Compound: CC(C)C[C@H](NC(=O)[C@H](Cc1ccc(O)cc1)NC(=O)[C@H](Cc1c[nH]cn1)NC(=O)[C@H](CCCNC(=N)N)NC(=O)[C@H](CC(C)C)NC(=O)[C@H](CC(=O)O)NC(=O)[C@@H](CCCCNC(=O)CC[C@H](NC(=O)CC[C@H](NC(=O)CCCCCCCCCCCCCCCCCCC(=O)O)C(=O)O)C(=O)O)NC(=O)[C@H](Cc1ccc(O)cc1)NC(=O)[C@H](Cc1ccc(O)cc1)NC(=O)[C@H](CCCNC(=N)N)NC(=O)[C@H](CC(N)=O)NC(=O)[C@H](Cc1c[nH]c2ccccc12)NC(=O)[C@H](CCC(=O)O)NC(=O)[C@H](CCC(=O)O)NC(=O)[C@@H]1CCCN1C(=O)[C@H](CO)NC(=O)[C@H](C)NC(=O)[C@H](CC(=O)O)NC(=O)[C@H](CCCCN)NC(=O)CNC(=O)[C@@H]1CCCN1C(=O)[C@H](C)NC(=O)[C@H](CCC(=O)O)NC(=O)[C@@H]1CCCN1C(=O)[C@H](CCCCN)NC(=O)[C@@H]1CCCN1)C(=O)N[C@@H](CC(N)=O)C(=O)N[C@@H](Cc1c[nH]c2ccccc12)C(=O)N[C@@H](CC(C)C)C(=O)N[C@H](C(=O)N[C@@H](CCCNC(=N)N)C(=O)N[C@@H](CCC(N)=O)C(=O)N[C@@H](CCCNC(=N)N)C(=O)N[C@@H](Cc1ccccc1)C(N)=O)[C@@H](C)O [Compound A14]
- pEC50 (human Y1 receptor): 8.50
- pEC50 (human Y2 receptor): 10.10
- pEC50 (human Y5 receptor): 8.30
- Stability (37° C./RT, T0: Mar. 25, 2020) [1]: 94.2
